pIC50: −log10 of the molar value. Entries after “also recorded” stand apart in the source; their conditions may differ.
Assays:
[1] = test system: HaCaT cells; assay: Autophagy by Muse Autophagy LC3-antibody based kit (flow cytometry); type: cell-based, human; details: 48 h; for order of the autophagy induction ratio (from highest to lowest): 100 µM
Description: The Muse™ Autophagy LC3-antibody based kit (Cat. No. MCH200109, Millipore) was used to determine the induction of autophagy in HaCaT cells after treatment with RSV, RF, CRC, and CF (5–100 μM) with some minor protocol modifications. The experimental procedure for both analyses was set up as for cell viability determination by the Trypan blue method. Autophagy induction data were read based on the fluorescence intensity of the sample (using Muse™ Cell Analyzer). For each concentration tested, 3–8 independent biological samples were analyzed.

[2] = test system: HaCaT cells; assay: Cell proliferation/viability by Trypan Blue exclusion method; type: cell-based, human; details: 48 h; for antiproliferative activity compared to RSV or CRC-treated cells: 5–100 µM
Description: (§1) The adherent HaCaT cell line was obtained from Cytion, Eppelheim, Germany. The HaCaT cell line was routinely grown in Dulbecco’s Modified Eagle Medium supplemented with 10% (v/v) fetal bovine serum (atmosphere of 95% air and 5% CO2 at 37 °C), obtained from Sigma-Aldrich Co., St. Louis, MO, USA. No antibiotics were used throughout the experiments. Cells were harvested with trypsin/EDTA solution (Sigma-Aldrich Co.) after reaching >70% confluence, diluted to the required density, and seeded in multiwell plates (Nunc, Roskilde, Denmark), depending on the experiments performed.
(§2) The cytotoxicity endpoints were determined by MTT (3-(4,5-dimethyl-2-thiazolyl)-2,5-diphenyl-2H-tetrazolium bromide) assay and Trypan blue method. For the MTT assay, cells were seeded in 96-well transparent flat-bottomed polystyrene plates at an initial concentration of 2.5 × 10^5 cells mL^−1 (100 μL/well) in growth medium supplemented with RSV, RF, CRC, and CF at concentrations of 5–100 μM. Concentrations were chosen based on our previously conducted research—reported cytotoxicity thresholds in HaCaT and other cell lines. RF and CF were synthesized in the Laboratory for Organic Chemistry at the University of Zagreb Faculty of Food Technology and Biotechnology, Zagreb, Croatia, while RSV and CRC were purchased from Sigma-Aldrich. After 48 h of incubation at 37 °C, cell viability was determined using the MTT assay. The absorbance was measured at 540 nm (Cary Eclipse spectrofluorimeter, Varian, Palo Alto, CA, USA). For the Trypan blue method, the cells were seeded in 6-well plates at an initial concentration of 2 × 10^4 cells mL^−1 (4 mL/well). After overnight incubation at 37 °C, the cells were treated with RSV, RF, CRC, and CF at different concentrations (5–100 μM). Cell viability was determined 48 h after treatment using the Trypan blue method. The stock solution of RSV was prepared in EtOH, while CRC and ferrocenyl analogues require DMSO due to higher lipophilicity. All stock solutions were stored at −20 °C until use. […] Cell viability is expressed as the percentage of treated cells compared to control cells. For each concentration tested, 3–15 independent biological samples were analyzed.

[3] = test system: HaCaT cells; assay: Intracellular ROS (DCFDA) induced by tert-butyl hydroperoxide; type: cell-based, human; details: then 50 µM tBHP; for doses with statistically significant (p < 0.05) lowering of ROS levels: HaCaT pretreated overnight; for effect on ROS induced by tBHP: HaCaT pretreated with 2.5–50 µM
Description: (§3) Two approaches were used for intracellular ROS induction. The first approach involved pretreatment of HaCaT cells with RSV, RF, CRC, and CF and, after overnight incubation, treatment with 50 μM tBHP (tert-butyl hydroperoxide). The second approach included pretreatment of the cells with CRC and CF, and after overnight incubation, exposure of the cells to UV (ultraviolet)-C light (15 W; 55 V; 254 nm; PURITEC HNS Linear Lamps, HNS 15 W G13, Osram GmbH, Munich, Germany) for 3 h. In brief, HaCaT cells were seeded at a concentration of 2.5 × 10^5 cells mL^−1 in black 96-well plates (100 µL/well) in growth medium and supplemented with RSV, RF, CRC, and CF at concentrations 2.5–50 μM. The DCFDA/H2DCFDA (2′,7′-dichlorofluorescin diacetate/2′,7′-dichlorodihydrofluorescein diacetate) assay was performed according to the manufacturer’s protocol with minor modifications (Cellular ROS Assay Kit Cat. No. ab113851, Abcam, Cambridge, UK). The intracellular ROS level was determined by measuring the fluorescence intensity (λex/em = 485/535 nm; Cary Eclipse spectrofluorimeter). Cells treated with the same volume of DMSO or EtOH in which RSV, RF, CRC, and CF were dissolved, and cells treated with 50 µM tBHP served as controls. In UV experiments, cells treated with the solvent (DMSO) and exposed to UVR (ultraviolet radiation) were considered as control samples. For each concentration tested, 3–8 independent biological samples were analyzed.

[4] = test system: HaCaT cells; assay: Intracellular ROS (DCFDA), UV-C-induced or endogenous; type: cell-based, human
Description: as §3

[5] = test system: HaCaT cells; assay: Cell viability by MTT assay; type: cell-based, human; details: 48 h; for IC20 / pIC50 / IC80: MTT method
Description: as §1, §2

[6] = test system: HaCaT cells; assay: Apoptosis/necrosis by Muse Annexin V & Dead Cell Kit (flow cytometry); type: cell-based, human; details: 48 h
Description: (§4) The Muse™ Annexin V & Dead Cell Kit (Cat. No. MCH100105, Millipore, Merck Darmstadt, Germany) was used to determine the percentage of HaCaT cells in four different cell populations (live, early apoptotic, late apoptotic, and dead) after treatment of cells with RSV, RF, CRC, and CF (5–100 μM; for 48 h) according to the manufacturer’s protocol. A detailed protocol was elucidated in Murati et al.. The cells were analyzed using the Muse™ Cell Analyzer (Luminex, Austin, TX, USA). For each concentration tested, 3–7 independent biological samples were analyzed.

[7] = as above; type: cell-based, human; details: human, HaCaT cells, highest concentration (100 µM), read-out: viability (live cells)
Description: as §4

[8] = test system: DNA; set-up: method as in PMID 21388716; details: cited from earlier work
[9] = test system: DNA; set-up: method as in PMID 21388716; details: cited from earlier work; remark: listed apart in the source
[10] = HaCaT, Trypan Blue method, from dose–response curves
[11] = value outside the range of the tested doses (>100 µM)
[12] = Homo sapiens, HaCaT, Trypan Blue method, from dose–response curves
[13] = Homo sapiens, from dose–response curves

## COc1cc(/C=C/C(=O)CC(=O)[c-]2cccc2)ccc1O.[Fe+2].c1cc[cH-]c1 [CF, (E)-5-(4-hydroxy-3-methoxyphenyl)-1-ferrocenylpent-4-ene-1,3-dione]
[1]
  order of the autophagy induction ratio (from highest to lowest): CRC > CF > RF ≈ RSV
[1]; 5–100 µM
  effect on autophagy induction: reduced autophagic degradation activity; also recorded: decrease in the autophagy induction ratio
[2]; Trypan Blue
  antiproliferative activity compared to RSV or CRC-treated cells: significantly lower antiproliferative activity
[2]; [10]
  IC20: 75.4 µM
[3]
  doses with statistically significant (p < 0.05) lowering of ROS levels: ≥ 5 µM
  effect on ROS induced by tBHP: most pronounced effect; also recorded: significantly reduced the ROS induced by tBHP
[4]; HaCaT pretreated with 2.5–50 µM, UV-C 3 h
  effect on UV-induced ROS: did not exhibit significant antioxidant activity
[5]; [11]
  IC20: 121 µM
  pIC50: 3.68
  IC80: 273 µM
[6]; 5–100 µM
  effect on cell death / viability by flow cytometry: induced cell death significantly less compared to all compounds tested; also recorded: almost no effect on cell viability

## COc1cc(/C=C/C(=O)CC(=O)/C=C/c2ccc(O)c(OC)c2)ccc1O [CRC, (1E,6E)-1,7-bis(4-hydroxy-3-methoxyphenyl)-1,6-heptadiene-3,5-dione]
[1]; 100 µM (highest dose)
  effect on autophagy induction: highest autophagy induction ratio; also recorded: most prominent autophagy induction ratio
[1]
  order of the autophagy induction ratio (from highest to lowest): CRC > CF > RF ≈ RSV
[2]; HaCaT, Trypan Blue
  doses at which cell viability was almost completely impaired: ≥ 50 µM
[2]; [12]
  pIC50: 4.96
  IC80: 26.4 µM
[3]
  doses with statistically significant (p < 0.05) lowering of ROS levels: ≥ 5 µM
  effect on ROS induced by tBHP: most pronounced effect
[4]; HaCaT pretreated overnight, UV-C 3 h
  doses with protective effect against UV-induced ROS: ≥ 20 µM
[4]; HaCaT, without UV exposure
  doses significantly (p < 0.05) reducing endogenous ROS production: ≥ 20 µM
[5]; MTT
  doses at which cell viability was almost completely impaired: ≥ 50 µM
[5]; MTT, vs solvent control
  concentrations with statistically significant (p < 0.05) cytotoxicity: ≥ 20 µM
[5]; [13]
  IC20: 7.28 µM
  pIC50: 4.72
  IC80: 34 µM
[7]
  viability at 48 h, 100 µM: 1.08%
[6]; 100 µM
  proportion of cells in early and late apoptosis: 88.40%
[6]; highest concentration (100 µM)
  proportion of cells in late apoptosis: 88.34%
  proportion of cells in necrosis: 10.52%

## COc1cc(C=CC(=O)C(=C[c-]2cccc2)C(=O)C=Cc2ccc(O)c(OC)c2)ccc1O.[Fe+2].c1cc[cH-]c1 [FCU, 1,7-bis(p-hydroxy-m-methoxyphenyl)-4-ferrocenylidene-hepta-1,6-diene-3,5-dione]
[8]
  effect on Cu2+/GSH-induced oxidation of DNA: protective effects
[9]
  inhibition of AAPH-induced oxidation of DNA: in higher extent than CRC, feruloylacetone, and dehydrozingerone

## COc1cc(C=CC(=O)C=C[c-]2cccc2)ccc1O.[Fe+2].c1cc[cH-]c1 [FDZ, 1-(p-hydroxy-m-methoxyphenyl)-5-ferrocenyl-penta-1,4-dien-3-one]
[8]
  effect on Cu2+/GSH-induced oxidation of DNA: protective effects
[9]
  inhibition of AAPH-induced oxidation of DNA: in higher extent than CRC, feruloylacetone, and dehydrozingerone

## COc1cc(C=CC(O)=CC(=O)C=C[c-]2cccc2)ccc1O.[Fe+2].c1cc[cH-]c1 [FFT, 1-(p-hydroxy-m-methoxyphenyl)-3-hydroxy-7-ferrocenyl-hepta-1,4,6-trien-5-one]
[8]
  effect on Cu2+/GSH-induced oxidation of DNA: protective effects
[9]
  inhibition of AAPH-induced oxidation of DNA: in higher extent than CRC, feruloylacetone, and dehydrozingerone

## O=C(CCC[c-]1cccc1)Oc1ccc(/C=C/c2cc(OC(=O)CCC[c-]3cccc3)cc(OC(=O)CCC[c-]3cccc3)c2)cc1.[Fe+2].[Fe+2].[Fe+2].c1cc[cH-]c1.c1cc[cH-]c1.c1cc[cH-]c1 [RF, trans-3,5,4′-tri(4-ferrocenylbutanoyloxy)-stilbene]
[1]; 5 µM
  effect on autophagy induction: slightly induced autophagy
[1]; 100 µM (highest dose)
  effect on autophagy induction: lower autophagy-related LC3 protein
[1]
  order of the autophagy induction ratio (from highest to lowest): CRC > CF > RF ≈ RSV
[2]; Trypan Blue
  antiproliferative activity compared to RSV or CRC-treated cells: significantly lower antiproliferative activity
[2]; [10]
  IC20: 10.8 µM
[3]
  effect on ROS induced by tBHP: significantly reduced the ROS induced by tBHP
[6]
  doses after which the majority of cells remained in the early apoptosis fraction: ≥ 5 µM

## Oc1ccc(/C=C/c2cc(O)cc(O)c2)cc1 [RSV, 3,4′,5-trihydroxy-trans-stilbene]
[1]; 20 µM, p < 0.05
  effect on autophagy induction: stimulating
[1]; 100 µM (highest dose)
  effect on autophagy induction: reducing
[1]
  order of the autophagy induction ratio (from highest to lowest): CRC > CF > RF ≈ RSV
[2]; [12]
  IC20: 3.22 µM
  pIC50: 4.39
[6]; 100 µM
  level of cell death through necrotic or apoptotic pathways: ≤ 11%
[6]; 100 µM, p < 0.05
  cell survival (proportion of viable cells in the culture) vs control: significantly lower

Reference: article PMC12736313, “Curcumin and Resveratrol vs. Ferrocene-Modified Polyphenols: Role in Enhancing Protective Properties in Human Keratinocytes” (Pharmaceutics, 2025)
